Legend:
[1] = test system: tumor associated macrophages (TAMs) in murine Pan02 pancreatic tumors; assay: F4/80 IHC pathological scoring of tumor associated macrophages in Pan02 tumors; type: in vivo, mouse
Experimental: Pancreatic tumor samples from mice treated with different doses of Coenzyme Q10 were analyzed for the presence of tumor associated macrophages (TAMs). TAMs are found in close proximity to or within tumors and support tumor growth. C57B1/6 female mice were inoculated with Pan02 cells. When tumors reached a mean volume of 100 mm^3, animals were randomized into four groups and treated with vehicle control or Coenzyme Q10 (25, 50 or 100 mg/kg) twice daily for 21 days. At the end of the study, tumors were removed and subjected to immunohistochemistry (IHC) analysis for TAMs using the F4/80 marker. All slides were subjected to a pathological scoring. […] As shown in FIGS. 28A and 28B, Coenzyme Q10 decreased TAMs in a dose dependent manner.

[2] = test system: interferon-γ (IFN-γ); assay: Cytokine ELISA in PBMC supernatants; type: cell-based, human; details: during PHA activation, various concentrations of Coenzyme Q10
Experimental: (§1) Cytokines were measured in the PBMCs according to the manufacturer's protocol for R&D Quantikine ELISA kits (R&D Systems, Inc., Minneapolis, Minn.) specific to each cytokine. PBMCs were collected from 3 donors (D003F, D004F and D005F).

[3] = test system: IL-10; assay: Cytokine ELISA in PBMC supernatants; type: cell-based, human; details: during PHA activation, various concentrations of Coenzyme Q10
Experimental: as §1

[4] = test system: IL-2; assay: Cytokine ELISA in PBMC supernatants; type: cell-based, human; details: during PHA activation, various concentrations of Coenzyme Q10
Experimental: as §1

[5] = test system: PD-L1 protein on the surface of breast cancer cells (MDA-MB231); assay: Flow cytometry of PD-L1 protein on the cancer cell surface; type: cell-based, human
Experimental: Flow cytometry analysis with a fluorescent probe for PD-L1 was used to determine the expression of PD-L1 protein on the surface of various human cancer cell lines. The cells were treated with 100 μM Coenzyme Q10, or the IC50 of Coenzyme Q10 for each cell line. […] The increased PD-L1 levels observed in breast cancer cells in response to Coenzyme Q10 treatment were not due to changes in cell populations.

[6] = test system: PD-L1 protein on the surface of mouse syngeneic tumor cell lines; assay: PD-L1 protein on the surface of mouse syngeneic tumor cells; type: cell-based; details: with or without INFγ, IC50 amount of Coenzyme Q10, 24 hours
Experimental: The effect of Coenzyme Q10 on the level of PD-L1 protein on the surface of the mouse syngeneic tumor cells was also evaluated. Mouse syngeneic tumor cell lines from different tissue types were cultured with or without interferon γ (INFγ) in the presence or absence of their corresponding IC50 amount of Coenzyme Q10 at 37° C. for 24 hours.

[7] = test system: LL/2 Lewis lung carcinoma cells; assay: Cell viability (CellTiter-Fluor) of mouse syngeneic tumor cell line; type: cell-based; details: LL/2, 72 hours, 37° C.
Experimental: (§2) The sensitivity of mouse syngeneic tumor cell lines to Coenzyme Q10 was evaluated in vitro. Six mouse syngeneic tumor cell lines from different tissue types were exposed to increasing concentrations of Coenzyme Q10 (0-25 mM) at 37° C. for 72 hours. Cell viability was measured using CellTiter-Fluor kit (Promega, Madison, Wis.). Graphs and IC50 values were calculated using GraphPad Prism using data for at least three independent experiments. Mouse syngeneic tumor cell lines evaluated were Lewis lung carcinoma (LL2), hepatoma (Hepa1-6) skin melanoma (B16F10), colon cancer (CT26), mammary gland adenocarcinoma (EMT6/P), and renal adenocarcinoma (Renca). As shown in FIGS. 24A-24F, Coenzyme Q10 reduced viability of all of the tumor cell lines in a dose dependent manner.

[8] = test system: Hepa1-6 hepatoma cells; assay: as above; type: cell-based; details: Hepa1-6, 72 hours, 37° C.
Experimental: as §2

[9] = test system: human PBMCs (T cells); assay: Viability of immune cell subpopulations within PBMCs (Annexin V/7 AAD flow cytometry); type: cell-based; details: 0-800 μM Coenzyme Q10, 24 hours, PHA-stimulated or unstimulated PBMCs
Experimental: PBMCs isolated from healthy human donor leukopaks were isolated and cryopreserved. To study the effect of Coenzyme Q10, cells were thawed, rested overnight and treated with or without phytohemagglutinin (PHA). PHA is a lectin protein found in plants which activates T cells by inducing mitosis. Various concentrations of Coenzyme Q10 (0, 12.5, 50, 200, 400 or 800 μM) were added to the cells at the same time. 24 hours to 72 hours post-treatment, frequency and viability of immune cell subpopulations was evaluated, as well as proliferative potential, cytokine secretion, and inhibitory receptor surface expression.
The viability of human immune cell subpopulations within PHA-stimulated or unstimulated PBMCs concurrently treated with Coenzyme Q10 was also determined. Cells were treated with 0, 12.5, 50, 200, 400 or 800 μM Coenzyme Q10 for 24 hours. Cell populations and viability was determined by flow cytometry using combinational staining of surface markers using Annexin V/7 AAD stains. Cells from 5 healthy donors were evaluated. Total, cytotoxic and helper T cell viability after treatment with increasing Coenzyme Q10 concentrations show T cell viability increased in response to Coenzyme Q10. FIG. 17A. […]

[10] = test system: tumor infiltrating lymphocytes (TILs) in murine Pan02 pancreatic tumors; assay: CD8 IHC pathological scoring of tumor infiltrating lymphocytes in Pan02 tumors; type: in vivo, mouse
Experimental: Tumor samples from mice with murine Pan02 tumors treated with different doses of Coenzyme Q10 were analyzed for the presence of tumor infiltrating lymphocytes (TILs). C57B1/6 female mice were inoculated with 3×10^7 Pan02 cells. When tumors reached a mean volume of 100 mm^3, animals were randomized into four groups and treated with vehicle control or Coenzyme Q10 (25, 50 or 100 mg/kg) twice daily for 21 days. At the end of the study, tumors were removed and subjected to IHC analysis for Tumor Infiltrating Lymphocytes (TILs) with CD8 staining. All slides were subjected to a pathological scoring. […] As shown in FIGS. 29A and 29B, Coenzyme Q10 increased TILs in a dose-dependent manner.

[11] = 25 mg/kg twice daily for 21 days
[12] = 50 mg/kg twice daily for 21 days
[13] = 100 mg/kg twice daily for 21 days

COC1=C(OC)C(=O)C(C/C=C(\C)CC/C=C(\C)CC/C=C(\C)CC/C=C(\C)CC/C=C(\C)CC/C=C(\C)CC/C=C(\C)CC/C=C(\C)CC/C=C(\C)CCC=C(C)C)=C(C)C1=O [Coenzyme Q10]
Percentage of mice with TAM levels Higher than Control [1, 11]: 0% | Percentage of mice with TAM levels Lower than Control [1, 11]: 20% | Percentage of mice with TAM levels Similar to Control [1, 11]: 80% | Percentage of mice with TAM levels Higher than Control [1, 12]: 0% | Percentage of mice with TAM levels Lower than Control [1, 12]: 85.8% | Percentage of mice with TAM levels Similar to Control [1, 12]: 14.3% | Percentage of mice with TAM levels Higher than Control [1, 13]: 0% | Percentage of mice with TAM levels Lower than Control [1, 13]: 44.4% | Percentage of mice with TAM levels Similar to Control [1, 13]: 55.6% | Tumor associated macrophages (TAMs) in tumors ([1]; 25, 50 or 100 mg/kg twice daily for 21 days): decreased | IFN-γ level in supernatant [2]: increased | IL-10 level in supernatant [3]: dose-dependently decreased | IL-2 level in supernatant [4]: increased | Amount of PD-L1 protein on the cell surface ([5]; MDA-MB231, 3 hours after treatment): significantly increased | Amount of PD-L1 protein on the cell surface, treated vs untreated ([5]; MDA-MB231, 6 hours after treatment): no significant difference | Amount of PD-L1 protein on the cell surface ([5]; MDA-MB231, 72 hours after treatment): significantly increase | Percentage of cells having PD-L1 protein on their surface ([5]; MDA-MB231, 72 hours after treatment, 100 μM or IC50 of Coenzyme Q10): did not significantly change | Cell populations, treated vs untreated cells ([5]; MDA-MB231, flow cytometry): no changes | Level of PD-L1 protein on the cell surface [6]: did not have any effect | IC50 [7]: 237 µM | IC50 [8]: 912 µM | T cell viability (total, cytotoxic and helper T cells) [9]: increased | Percentage of mice with TIL levels Higher than Control [10, 11]: 40% | Percentage of mice with TIL levels Lower than Control [10, 11]: 10% | Percentage of mice with TIL levels Similar to Control [10, 11]: 50% | Percentage of mice with TIL levels Higher than Control [10, 12]: 42.9% | Percentage of mice with TIL levels Lower than Control [10, 12]: 28.6% | Percentage of mice with TIL levels Similar to Control [10, 12]: 28.6% | Percentage of mice with TIL levels Higher than Control [10, 13]: 55.2% | Percentage of mice with TIL levels Lower than Control [10, 13]: 33.3% | Percentage of mice with TIL levels Similar to Control [10, 13]: 11.1% | Tumor infiltrating lymphocytes (TILs) in tumors ([10]; 25, 50 or 100 mg/kg twice daily for 21 days, dose-dependent): increased

— patent US20180021270A1, “METHODS FOR THE TREATMENT OF CANCER USING COENZYME Q10 IN COMBINATION WITH IMMUNE CHECKPOINT MODULATORS” (Berg LLC, priority 2016, published 2018)
